The values below come from ChEMBL document CHEMBL1201862, “PubChem BioAssay data set” (2004).

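Dose response: 5 concentrations. Exposure: 48 h. Format: 96-well plates. Endpoint: linear interpolation; highest concentration if not reached. GI50: concentration for 50% inhibition of growth.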 The source made the active and inactive calls. Cut-off read from the data, not from the text of the source: active = GI50 up to about 1.1 µM and inactive = higher. A value given as a limit tells only on which side of the number the result lay.

What all share (assay): NCI tumour cell line growth inhibition, 48 h
In experiment [1] the test system is Hs-578T.
Experiment [2] deals with SF-268.
For experiment [3], the system named is COLO 205.
For experiment [4], the system named is RXF 393.
In experiment [5] the test system is 786-0.
Experiment [6] relates to CCRF-CEM.
The subject of experiment [7] is HOP-92.
Experiment [8] has as its system SW-620.
The test system of experiment [9] is U-251.
Experiment [10] concerns UACC-62.
The test system of experiment [11] is ACHN.
Experiment [12] deals with NCI-H522.
Experiment [13] relates to Malme-3M.
Experiment [14] deals with HL-60.
Experiment [15] relates to SNB-75.
Experiment [16] deals with KM12.
For experiment [17], the system named is OVCAR-3.
The test system of experiment [18] is RPMI-8226.
Experiment [19] has as its system MOLT-4.

Consider `CO[P@]1(=O)O[C@@H](c2ccccc2)[C@H](O)[C@]1(O)c1ccccc1`, for which the GI50 in [1], in [2], in [3], in [4], in experiment [5] and in experiment [6] was > 100 µM (inactive) in each case. Moreover, the GI50 in [7], in [8], in experiment [9], in experiment [10], in experiment [11] and in experiment [12] was > 100 µM (inactive) throughout. In addition, the GI50 in [13], in experiment [14], in [15], in experiment [16], in [17] and in experiment [18] was > 100 µM (inactive) throughout.
For the compound `Cc1ccc(-n2cc(-c3ccc(Cl)cc3)c3c(=N)n(N)cnc32)cc1`, the GI50 is 3.71 µM (inactive) in experiment [1]; 12.7 µM (inactive) in [2]; 8.2 µM (inactive) in experiment [3]; 4.69 µM (inactive) in experiment [4]; 11.9 µM (inactive) in experiment [5]; 11.3 µM (inactive) in experiment [6]. Moreover, the GI50 in experiment [7] is 9.95 µM (inactive); in experiment [8], 12.4 µM (inactive); in experiment [9], 10.5 µM (inactive); in experiment [10], 13.2 µM (inactive); in experiment [11], 16.2 µM (inactive); in experiment [12] it was 14.5 µM (inactive). Moreover, the GI50 was 13.2 µM (inactive) in [13], 7.83 µM (inactive) in experiment [14], 12.6 µM (inactive) in [15] and 13.5 µM (inactive) in experiment [17].
In the case of `O=[N+]([O-])c1cccc(-c2ncnc(-c3cccc([N+](=O)[O-])c3)n2)c1`, the GI50 is 51.2 µM (inactive) in experiment [1]; 54 µM (inactive) in experiment [2]; > 100 µM (inactive) in experiment [3]; 18.5 µM (inactive) in experiment [4]; 27.4 µM (inactive) in experiment [5]; 19.5 µM (inactive) in experiment [7]. The GI50 in experiment [8] was > 100 µM (inactive); in [9], 23.5 µM (inactive); in [10], 27.4 µM (inactive); in experiment [12], 38.5 µM (inactive); in experiment [13], > 100 µM (inactive); in experiment [14], 36.6 µM (inactive). The GI50 in experiment [15] is 26.7 µM (inactive); in experiment [16], > 100 µM (inactive); in experiment [17] it was 35.9 µM (inactive); in experiment [19] it was > 100 µM (inactive); in experiment [18], > 100 µM (inactive).
On to `CC1(COS(=O)(=O)OCC2(C)COS(=O)(=O)OC2)COS(=O)(=O)OC1`, for which the GI50 in experiment [1] was > 100 µM (inactive); in [2], > 100 µM (inactive); in [3] it was > 51.6 µM (inactive); in experiment [4], > 64.7 µM (inactive); in experiment [5], > 50.8 µM (inactive); in [6], > 28.2 µM (inactive). The GI50 is 10.3 µM (inactive) in experiment [7]; > 55.2 µM (inactive) in experiment [8]; > 38.1 µM (inactive) in [9]; > 61.8 µM (inactive) in experiment [10]; > 32.3 µM (inactive) in experiment [11]; > 61.1 µM (inactive) in experiment [12]. Moreover, the GI50 in experiment [13] was > 83 µM (inactive); in experiment [14] it was > 35.1 µM (inactive); in experiment [15], > 100 µM (inactive); in experiment [16], > 32.7 µM (inactive); in experiment [17] it was > 100 µM (inactive); in experiment [18], > 20.2 µM (inactive).
Take `COC(=O)C1=Cc2cc(OC)c(O)cc2[C@@H](c2ccc(O)c(OC)c2)[C@@H]1C(=O)OC`: the GI50 was 78.9 µM (inactive) in experiment [1]; > 100 µM (inactive) in [2]; > 100 µM (inactive) in experiment [3]; 61.7 µM (inactive) in [4]; > 100 µM (inactive) in experiment [5]; > 100 µM (inactive) in [6]. For the same compound, the GI50 is 53.7 µM (inactive) in experiment [7]; > 100 µM (inactive) in [8]; > 100 µM (inactive) in experiment [9]; > 100 µM (inactive) in experiment [11]; > 100 µM (inactive) in experiment [12]; > 100 µM (inactive) in experiment [13]. In addition, the GI50 in [14] was > 100 µM (inactive); in experiment [15], 58.1 µM (inactive); in experiment [16] it was 37.6 µM (inactive); in [17], > 100 µM (inactive); in [19] it was > 100 µM (inactive); in experiment [18], > 100 µM (inactive).
Take `O=[N+]([O-])c1ccc(/C(=C\c2ccccc2)Cn2ccnc2)cc1`: the GI50 was 29.1 µM (inactive) in experiment [1]; 15 µM (inactive) in experiment [3]; 31.6 µM (inactive) in experiment [4]; 34.3 µM (inactive) in experiment [5]; 28 µM (inactive) in experiment [6]; 18.9 µM (inactive) in experiment [7]. Also, the GI50 in experiment [8] is 44.7 µM (inactive); in experiment [9], 33.3 µM (inactive); in experiment [10], 33.5 µM (inactive); in [11] it was 29.8 µM (inactive); in experiment [12], 20 µM (inactive); in experiment [13] it was 85.5 µM (inactive). Further, the GI50 is 19 µM (inactive) in experiment [14]; 27.4 µM (inactive) in experiment [15]; 33 µM (inactive) in [16]; 24 µM (inactive) in [19]; 28.9 µM (inactive) in experiment [18].
Consider `OCCCN(CCc1ccc(Cl)c(Cl)c1)CCN1CCCC1`, for which the GI50 is 38.8 µM (inactive) in [1]; 48 µM (inactive) in experiment [2]; 64.4 µM (inactive) in experiment [4]; 24 µM (inactive) in [5]; 30 µM (inactive) in experiment [6]; > 100 µM (inactive) in experiment [7]. The GI50 in experiment [8] was 81.5 µM (inactive); in experiment [9] it was 48.1 µM (inactive); in experiment [10], 16.9 µM (inactive); in [11] it was 64.6 µM (inactive); in [12] it was 30.3 µM (inactive); in experiment [13] it was 23.9 µM (inactive). Further, the GI50 is 34.4 µM (inactive) in [14]; 33 µM (inactive) in [15]; 45.7 µM (inactive) in [16]; > 100 µM (inactive) in [17]; 39.2 µM (inactive) in experiment [19]; 26.5 µM (inactive) in experiment [18].
On to `O=C1c2ccccc2C(=O)c2c(NCCCN3CCOCC3)ccc(NCCCN3CCOCC3)c21`, for which the GI50 in experiment [1] was 5.45 µM (inactive); in experiment [2], 2.75 µM (inactive); in experiment [4] it was 8.36 µM (inactive); in experiment [5], 2.29 µM (inactive); in experiment [6], 2.59 µM (inactive); in [7], 1.89 µM (inactive). In addition, the GI50 was 3.97 µM (inactive) in experiment [8]; 3.24 µM (inactive) in experiment [9]; 2.03 µM (inactive) in experiment [10]; 2.07 µM (inactive) in experiment [11]; 0.67 µM (active) in [12]; 8.89 µM (inactive) in experiment [13]. For the same compound, the GI50 in experiment [14] was 2.45 µM (inactive); in experiment [15] it was 2.29 µM (inactive); in experiment [16] it was 3.12 µM (inactive); in experiment [17] it was 4.07 µM (inactive); in [19], 1.09 µM (active); in [18], 2 µM (inactive).
